Assay results as given in patent US7875625B2, “Cyclohepta[b]pyridine-3-carbonylguanidine derivative and pharmaceutical product containing same” (Toa Eiyo Ltd., priority 2005, dated 2011).
Counter-ions that a name gives are not always drawn.

What was measured:
Na^+/H^+ exchanger (NHE) = target: T1, Na^+/H^+ exchanger (NHE) (Rattus norvegicus, UniProt P26431); assay: NHE inhibitory effect test (swelling of rat platelets induced by sodium propionate); format: cell-based; conditions: for IC50: rat platelet-rich plasma, sodium propionate buffer pH 6.7, 300 μM Amiloride taken as 100% inhibition, Probit method; for NHE inhibitory activity (in words): compared with the control compound
T1 construct: from tissue; host or cells: platelet-rich plasma from Wistar rat blood
T1 sequence (P26431 whole entry): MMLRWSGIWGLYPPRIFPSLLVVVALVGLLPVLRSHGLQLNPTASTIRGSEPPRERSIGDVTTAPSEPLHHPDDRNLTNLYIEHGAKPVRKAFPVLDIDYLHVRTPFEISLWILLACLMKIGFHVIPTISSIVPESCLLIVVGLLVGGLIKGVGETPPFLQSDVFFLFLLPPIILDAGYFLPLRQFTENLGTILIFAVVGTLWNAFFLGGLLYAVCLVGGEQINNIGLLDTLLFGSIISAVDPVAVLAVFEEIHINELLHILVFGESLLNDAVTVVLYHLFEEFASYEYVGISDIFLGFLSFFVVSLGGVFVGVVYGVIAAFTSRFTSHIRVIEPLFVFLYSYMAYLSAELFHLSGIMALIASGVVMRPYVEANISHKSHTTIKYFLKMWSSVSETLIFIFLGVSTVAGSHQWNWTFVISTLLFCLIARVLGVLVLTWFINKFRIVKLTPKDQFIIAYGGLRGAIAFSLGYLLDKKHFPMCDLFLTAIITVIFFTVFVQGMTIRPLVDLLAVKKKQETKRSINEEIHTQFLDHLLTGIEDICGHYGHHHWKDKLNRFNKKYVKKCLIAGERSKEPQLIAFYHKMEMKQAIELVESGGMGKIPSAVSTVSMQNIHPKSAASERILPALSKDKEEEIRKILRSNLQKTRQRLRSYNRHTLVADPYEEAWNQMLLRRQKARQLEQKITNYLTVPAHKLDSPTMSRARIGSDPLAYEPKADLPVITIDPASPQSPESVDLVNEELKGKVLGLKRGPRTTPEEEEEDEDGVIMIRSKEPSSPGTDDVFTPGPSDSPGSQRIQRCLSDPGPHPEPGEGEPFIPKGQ
Description: The NHE inhibitory activity was measured according to the method by Scholz et al. [British Journal of Pharmacology, Vol. 109, p. 562-568 (1993)], taking the swelling of rat platelets induced by sodium propionate as an index.
Under etherization, blood was collected (8 mL) from the abdominal aorta of a Wistar rat, and 1 mL of a citrate dextrose solution as an anticoagulant was added. The blood sample was immediately centrifuged at 90×g for 10 minutes, and then the collected supernatant was taken as platelet-rich plasma. Subsequently, to 250 μL of a 140 mM sodium propionate buffer solution containing the test compound dissolved in dimethylsulfoxide (pH 6.7, final dimethylsulfoxide concentration 1%), the platelet-rich plasma prepared in the above (number of platelet; 10×10^6/50 μL) was added, and the decrease in the absorbance associated with the swelling of platelets was measured over time with a Hematracer (NKK Corp.).
The rate of decrease in the absorbance at 20 seconds after the addition of the platelet-rich plasma was taken as the NHE activity, and the inhibitory activity of the respective compounds was expressed as a relative activity, while the action obtained upon addition of 300 μM of Amiloride was taken as 100% inhibition.
In addition, the test results were obtained by calculating the concentration at which the inhibitory activity of the test compound becomes 50% (IC50 value), by a Probit method.

[1] = test system: reperfusion-induced arrhythmia upon myocardial ischemia; assay: Reperfusion-induced arrhythmia inhibitory action test; format: in vivo, rat; conditions: male SD rats, 3.62 mmol/L, 1 mL/kg intravenous, within 10 minutes after reperfusion
Description: Subsequently, in evaluation of the in vivo NHE inhibitory action, the effect of the test compound on reperfusion-induced arrhythmia upon myocardial ischemia was evaluated according to the method of Aihara et al. [European Journal of Pharmacology, Vol. 404, p. 221-229 (2000)]. Under anesthesia using pentobarbital sodium (60 mg/kg, intraperitoneal administration), cannulae were inserted into trachea, femoral vein and carotid artery of male SD rats ([…]) for artificial ventilation, drug administration and blood pressure measurement, respectively. The blood pressure was measured using a strain pressure amplifier via a pressure transducer, while the heart rate was measured from the blood pressure pulse wave using a cardiotachometer. Furthermore, an electrocardiogram (lead II) was measured from the electrodes attached to each four limbs. Next, under artificial ventilation, left thoracotomy was performed and a snare (5-0 nylon) was loosely placed around a blood vessel which was about 3 mm apart from the origin of the left coronary artery. Thereafter, it was confirmed that arrhythmia was not occurred for 10 minutes, and then the snare was fastened to induce local myocardial ischemia. Furthermore, after 4 minutes of myocardial ischemia, the compound was intravenously administered for 1 minute, and after 5 minutes of myocardial ischemia, the snare was loosened, then the arrhythmia occurred after reperfusion was recorded and analyzed with an arrhythmia analyzer (Softron Co., Ltd.), thereby the anti-arrhythmic action of the compound was evaluated. […] The control group was administered with physiological saline.
With regard to the ventricular fibrillation (Vf) which occurred within 10 minutes after reperfusion (in the cases of halfway death, up to the time point where cardiac arrest was confirmed), arrhythmia analysis was performed according to the Guidelines for Lambeth Convention [Cardiovascular research, Vol. 22, p. 447-455, 1988], and evaluation was made in terms of the frequency of Vf occurrence, cumulative duration time of Vf, and the mortality.
The frequency of Vf occurrence, cumulative duration of Vf, and the mortality for the respective test compounds are presented in Table 2.

[2] = Metabolic stability test in rat (generation of control compound in plasma); format: in vivo; conditions: male SD rats; for Plasma concentration of the control compound, after 5 min / Plasma concentration of the control compound, after 15 min / Plasma concentration of the control compound, after 30 min / Plasma concentration of the control compound, after 60 min / Plasma concentration of the control compound, after 120 min: equivalent of 1 mg/kg control compound via tail vein, LC/MS/MS; for Decomposition into the Control Compound in vivo (in words): tail vein, plasma 5-120 min
From the text: The compound represented by Formula (1) of the present invention has a structure in which the hydroxyl group on the 9-position of a 9-hydroxymethyl-cyclohepta[b]pyridine-3-carbonylguanidine derivative is converted to a specific substituent. However, if the compound is metabolized in vivo to remove the specific substituent from the compound, there may be generated the original 9-hydroxymethyl-cyclohepta[b]pyridine-3-carbonylguanidine derivative, which has toxic effects on the central nervous system. Thus, the inventive compounds as synthesized in Examples were administered in vivo to study whether the control compound, which was the corresponding 9-hydroxymethyl product, was generated.
Male SD rats (7 weeks old) were administered at 1 mg/kg (an amount calculated excluding salts) of the control compound, an equivalent amount of the Inventive Compound 2, 4, 6, 7 or 12, or Reference Compound 20, through the tail vein. After administration, about 0.2 mL of blood samples were collected after 5, 15, 30, 60 and 120 minutes, and the blood samples were centrifuged at 4° C. at a speed of rotation of 15000 for 15 minutes, thus to separate the supernatant plasma. The concentration of the control compound in the plasma was measured by LC/MS/MS. The measurement results were shown as +++ when the detected plasma concentration of the control compound is 200 ng/mL or greater; ++ for more than 100 ng/mL and less than 200 ng/mL; + for more than 20 ng/mL and less than 100 ng/mL; and − for less than 20 ng/mL or no detection.

male mice = assay: Toxicity test with 2-days repeated intraperitoneal administration in mouse; format: in vivo; conditions: equivalent of 300 mg/kg control compound intraperitoneally once a day for 2 days
Description: For three male mice in each group, 300 mg/kg of the Control Compound (an amount calculated excluding salts), or an equivalent amount of the Inventive Compound 2, 4, 6, 7 or 12 were intraperitoneally administered once a day for 2 days, and a histopathological tests were performed. The Control Compound, and the Inventive Compounds 2, 4 and 6 were suspended in a 0.5% tragacanth gum solution, and the Inventive Compound 7 was suspended in a 10 DMSO-containing 0.5% tragacanth gum solution, while the Inventive Compound 12 was suspended in olive oil. For the histopathological test, in order to make a more thorough examination of central nervous toxicity, the brain was examined after whole body was subjected to perfusion fixation with a 4% formaldehyde in neutral phosphate buffer as a fixing solution using a liquid transporting pump under pentobarbital sodium anesthesia.

Beagle dogs = assay: Toxicity test after 4-days repeated intravenous administration in beagle dogs; format: in vivo, dog; conditions: equivalent of 30 mg/kg control compound intravenously once a day for 4 days
Description: With one male and one female dogs in each group, 30 mg/kg of the Control Compound dissolved in physiological saline (an amount calculated excluding salts), or an equivalent amount of the Inventive Compound 2, 4, 6 or 8 was repeatedly administered intravenously once a day for 4 days, and general symptom observation and pharmacological histopathologic examination were performed.

SMILES | IC50 (Na^+/H^+ exchanger (NHE)) [nM] | Cumulative duration of Vf [1] [s] | Frequency of Vf occurrence [1] [%] | Mortality [1] [%] | Plasma concentration of the control compound, after 5 min [2] | Plasma concentration of the control compound, after 15 min [2] | Plasma concentration of the control compound, after 30 min [2] | Plasma concentration of the control compound, after 60 min [2] | Plasma concentration of the control compound, after 120 min [2] | Decomposition into the Control Compound in vivo (in words) [2] | Histopathological finding in the brain (male mice) | General condition (symptom observation) (Beagle dogs) | Pathologic examination of the brain (Beagle dogs) | NHE inhibitory activity (in words) (Na^+/H^+ exchanger (NHE))
Cc1nc2c(cc1C(=O)NC(=N)N)CCCCC2COC(=O)NCCOCCOS(=O)(=O)O (stereo not drawn) [Inventive Compound 7, 2-[2-(3-Guanidinocarbonyl-2-methyl-6,7,8,9-tetrahydro-5H-cyclohepta[b]pyridin-9-ylmethyloxycarbonylamino)ethoxy]ethyl hydrogen sulfate] | 313 | 15.4 | 40 | 0 | − (− for less than 20 ng/mL or no detection) | − (− for less than 20 ng/mL or no detection) | − (− for less than 20 ng/mL or no detection) | − (− for less than 20 ng/mL or no detection) | − (− for less than 20 ng/mL or no detection) | not detected at any time point | any histologic finding which could be caused by drug administration was not recognized | – | – | –
Cc1nc2c(cc1C(=O)NC(=N)N)CCCCC2COC(=O)NCCOCCOS(=O)(=O)[O-].[Na+] (stereo not drawn) [Inventive Compound 8, 2-[2-(3-Guanidinocarbonyl-2-methyl-6,7,8,9-tetrahydro-5H-cyclohepta[b]pyridin-9-ylmethyloxycarbonylamino)ethoxy]ethyl sulfate sodium salt] | – | – | – | – | – | – | – | – | – | – | – | only vomiting was recognized | any histologic finding which could be caused by drug administration was not recognized | –
Cc1nc2c(cc1C(=O)NC(=N)N)CCCCC2COC(=O)NCCOCCOCCOCCOCCOCCOS(=O)(=O)[O-].[Na+] (stereo not drawn) [Inventive Compound 10, 17-(3-Guanidinocarbonyl-2-methyl-6,7,8,9-tetrahydro-5H-cyclohepta[b]pyridin-9-ylmethyloxycarbonylamino)-3,6,9,12,15-pentaoxaheptadecan-1-yl sulfate sodium salt] | 291 | 11.1 | 67 | 0 | – | – | – | – | – | – | – | – | – | –
Cc1nc2c(cc1C(=O)NC(=N)N)CCCCC2COC(=O)N[C@H]1CO[C@H]2[C@@H]1OC[C@H]2OS(=O)(=O)O (stereo partly drawn) [Inventive Compound 12, 2-Deoxy-1,4:3,6-dianhydro-2-(3-guanidinocarbonyl-2-methyl-6,7,8,9-tetrahydro-5H-cyclohepta[b]pyridin-9-ylmethyloxycarbonylamino)-D-glucitol-5-yl hydrogen sulfate] | 227 | 0.0 | 0 | 0 | − (− for less than 20 ng/mL or no detection) | − (− for less than 20 ng/mL or no detection) | − (− for less than 20 ng/mL or no detection) | − (− for less than 20 ng/mL or no detection) | − (− for less than 20 ng/mL or no detection) | not detected at any time point | any histologic finding which could be caused by drug administration was not recognized | – | – | –
Cc1nc2c(cc1C(=O)NC(=N)N)CCCCC2COP(=O)([O-])[O-].[Na+].[Na+] (stereo not drawn) [Reference Compound 20, 3-Guanidinocarbonyl-2-methyl-6,7,8,9-tetrahydro-5H-cyclohepta[b]pyridin-9-ylmethyl phosphate disodium salt, reference compound] | 662 | 46.8 | 80 | 40 | +++ (+++ when the detected plasma concentration of the control compound is 200 ng/mL or greater) | ++ (++ for more than 100 ng/mL and less than 200 ng/mL) | + (+ for more than 20 ng/mL and less than 100 ng/mL) | + (+ for more than 20 ng/mL and less than 100 ng/mL) | − (− for less than 20 ng/mL or no detection) | rapidly degraded to the Control Compound | – | – | – | –
N=C(N)NC(=O)c1cc2c(nc1COS(=O)(=O)O)CCCCC2 [Reference Compound 22, 3-Guanidinocarbonyl-6,7,8,9-tetrahydro-5H-cyclohepta[b]pyridin-2-ylmethyl hydrogen sulfate, reference compound] | > 100000 | – | – | – | – | – | – | – | – | – | – | – | – | significant lowering in the activity
Cc1nc2c(cc1C(=O)NC(=N)N)C(OS(=O)(=O)O)CCCC2 (stereo not drawn) [Reference Compound 23, 3-Guanidinocarbonyl-2-methyl-6,7,8,9-tetrahydro-5H-cyclohepta[b]pyridin-5-yl hydrogen sulfate, reference compound] | 37100 | – | – | – | – | – | – | – | – | – | – | – | – | significant lowering in the activity
